Test system: NCI-H196 complex spheroid viability
Test: Anticancer human tumor NCI-H196 cell line growth inhibition [LSD1];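 further: spheroids exposed to agents for 7 days before readout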;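 on viability, T/C: 100% = DMSO vehicle control viability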
Conditions: for IC50: curve of first compound; for viability, T/C: stronger effect = lower value
Excerpt: Multicellular complex tumor spheroid response to LSD1 Inhibitor Iadademstat in combination with a variety of drugs and investigational agents in selected tumor cell lines
The current study was undertaken to assess response to LSD1 inhibitors in combination with standard-of-care drugs and investigational agents in solid tumor complex spheroid models as well as in the K-562 leukemia. Complex spheroids include a stromal component modeled by human endothelial cells (HUVEC) and fibroblasts modeled by human mesenchymal stem cells (MSCs). The concentration ranges selected for each drug and investigational agent were based upon clinically achievable concentrations if the clinical Cmax of the agent was known.
Compounds. The drugs and investigational agents used in this study are listed on Table 1. All of the agents used, including staurosporine (NSC755774) and gemcitabine (NSC613327), were obtained from the Developmental Therapeutics Program, NCI. FDA-approved anticancer drugs are available from the NCI at http://dtp.nci.nih.gov/branches/dscb/oncology_drugset_explanation.html. Drugs and investigational agents were >95% pure by proton nuclear magnetic resonance (NMR) and liquid chromatography/mass spectrometry (LC/MS). Stock solutions were prepared at 400x in DMSO, stored at -70 degrees C, and diluted in fresh medium prior to their use. The final concentration of DMSO in cell culture wells never exceeded 0.25% (v/v). The FDA-approved anticancer drug set is available from the Developmental Therapeutics Program at https://dtp.cancer.gov/organization/dscb/obtaining/available_plates.htm. All drugs and investigational agents were tested over a range starting from a high concentration at or near the clinical Cmax and decreasing in half-log increments. If the clinical Cmax for an agent had not been determined, the highest concentration tested was 10 microM.
Cell Lines. The patient-derived cancer cell (PDC) lines: 292921-168-R-J2-PDC, K24384-001-R-PDC, and 521955-158-R2-J5-PDC pancreatic carcinomas, 556581-035-R-J1 ovarian carcinoma, 324938-238-R-J1-PDC, 855422-203-R-J1-PDC and 883617-216-R-J1-PDC urothelial bladder carcinomas, 743489-274-T-PDC renal cell carcinoma, 138582-R-J1 Merkel cell tumor, K60290-347-R-J1 and K57222-313-R-J1-PDC glioblastomas, 653999-131-R-J2-PDC, LG0703-F948-PDC, and 349418-098-R-PDC non-small cell lung carcinomas, 885512-296-R-J2-PDC, 171881-019-R-J1-PDC breast carcinomas and 186277-243-T-J2-PDC and 233499-124-R-J2-PDC colon carcinomas were obtained from the NCI Patient-Derived Models Repository (PDMR, https://pdmr.cancer.gov). The established cell lines NCI/ADR-RES (RRID:CVCL_14520 and OVCAR-5 (RRID:CVCL_1628) ovarian carcinomas, 786-O (RRID:CVCL_1051) and A498 (RRID:CVCL_A498) renal cell carcinoma, NCI-H211 (ATCC, cat. CRL-5824; RRID:CVCL_1529), NCI-H196 (ATCC, cat. CRL-5823, RRID:CVCL_1509), SW 1271 (ATCC, cat. CRL-2177, RRID:CVCL_1716) and NCI-H1876 (ATCC, cat. CRL-5902, RRID:CVCL_1503) small cell lung carcinomas, MDA-MB-231 (RRID:CVCL_0062) and MDA-MB-468 (RRID:CVCL_0419)breast carcinomas (10-12). Pooled donor human umbilical vein endothelial cells (HUVEC, Lonza, cat. CC-2519) and human mesenchymal stem cells (hMSC, Lonza, cat. PT-2501) were purchased from Lonza (Walkersville, MD).
Cell Culture. All cells were maintained in an incubator at 37 degrees C and 5% CO2 with 95% humidity. The PDC lines were cultured according to standard operating procedures established by the NCI PDMR (https://pdmr.cancer.gov). Briefly all PDCs were thawed and cultured in Matrigel-coated flasks prepared with a working solution of 1X Ham's F-12 nutrient mix, without supplementation (Invitrogen, Waltham, MA, cat. 11765054), 100 U/mL penicillin-streptomycin (Invitrogen, cat. 15140122), and 2.5% Matrigel (Corning Inc., Corning, NY, cat. 354248) for the first three passages. […]

[1] = second compound 0.1 µM, first compound 0.000949 µM
[2] = second compound 0.1 µM, first compound 0.003 µM
[3] = second compound 0.1 µM, first compound 0.00949 µM
[4] = second compound 0.1 µM, first compound 0.03 µM
[5] = second compound 0.1 µM, first compound 0.0949 µM
[6] = second compound 0.1 µM, first compound 0.3 µM
[7] = second compound 0.316 µM, first compound 0.000949 µM
[8] = second compound 0.316 µM, first compound 0.003 µM
[9] = second compound 0.316 µM, first compound 0.00949 µM
[10] = second compound 0.316 µM, first compound 0.03 µM
[11] = second compound 0.316 µM, first compound 0.0949 µM
[12] = second compound 0.316 µM, first compound 0.3 µM
[13] = second compound 1 µM, first compound 0.000949 µM
[14] = second compound 1 µM, first compound 0.003 µM
[15] = second compound 1 µM, first compound 0.00949 µM
[16] = second compound 1 µM, first compound 0.03 µM
[17] = second compound 1 µM, first compound 0.0949 µM
[18] = second compound 1 µM, first compound 0.3 µM
[19] = second compound 3.16 µM, first compound 0.000949 µM
[20] = second compound 3.16 µM, first compound 0.003 µM
[21] = second compound 3.16 µM, first compound 0.00949 µM
[22] = second compound 3.16 µM, first compound 0.03 µM
[23] = second compound 3.16 µM, first compound 0.0949 µM
[24] = second compound 3.16 µM, first compound 0.3 µM
[25] = second compound 10 µM, first compound 0.000949 µM
[26] = second compound 10 µM, first compound 0.003 µM
[27] = second compound 10 µM, first compound 0.00949 µM
[28] = second compound 10 µM, first compound 0.03 µM
[29] = second compound 10 µM, first compound 0.0949 µM
[30] = second compound 10 µM, first compound 0.3 µM

CCc1c2c(nc3ccc(O)cc13)-c1cc3c(c(=O)n1C2)COC(=O)[C@]3(O)CC + NC1CC1c1ccc(-c2cccc(O)c2)cc1
IC50 (second compound 0.1 µM): 8.32 nM | IC50 (second compound 0.316 µM): 9.63 nM | IC50 (second compound 1 µM): 9.19 nM | IC50 (second compound 3.16 µM): 6.69 nM | IC50 (second compound 10 µM): 5.92 nM | viability, T/C [1]: 119% | viability, T/C [2]: 111% | viability, T/C [3]: 42% | viability, T/C [4]: 4.2% | viability, T/C [5]: 1.09% | viability, T/C [6]: 0.82% | viability, T/C [7]: 107% | viability, T/C [8]: 93.1% | viability, T/C [9]: 52.4% | viability, T/C [10]: 4.27% | viability, T/C [11]: 1.53% | viability, T/C [12]: 1.11% | viability, T/C [13]: 112% | viability, T/C [14]: 94.9% | viability, T/C [15]: 51.1% | viability, T/C [16]: 3.65% | viability, T/C [17]: 1.2% | viability, T/C [18]: 0.86% | viability, T/C [19]: 102% | viability, T/C [20]: 81.2% | viability, T/C [21]: 37.8% | viability, T/C [22]: 2.23% | viability, T/C [23]: 1.01% | viability, T/C [24]: 0.7% | viability, T/C [25]: 90.9% | viability, T/C [26]: 82.7% | viability, T/C [27]: 27.4% | viability, T/C [28]: 1.9% | viability, T/C [29]: 0.86% | viability, T/C [30]: 0.72%

Nc1ccn(C2OC(CO)C(O)C2(F)F)c(=O)n1 (stereo not given) + NC1CC1c1ccc(-c2cccc(O)c2)cc1
IC50 (second compound 0.1 µM): > 300 nM | IC50 (second compound 0.316 µM): > 300 nM | IC50 (second compound 1 µM): > 300 nM | IC50 (second compound 3.16 µM): > 300 nM | IC50 (second compound 10 µM): > 300 nM | viability, T/C [1]: 119% | viability, T/C [2]: 105% | viability, T/C [3]: 97.4% | viability, T/C [4]: 65.2% | viability, T/C [5]: 68.9% | viability, T/C [6]: 62.6% | viability, T/C [7]: 106% | viability, T/C [8]: 107% | viability, T/C [9]: 79.7% | viability, T/C [10]: 66.8% | viability, T/C [11]: 67.3% | viability, T/C [12]: 67.7% | viability, T/C [13]: 108% | viability, T/C [14]: 108% | viability, T/C [15]: 75.6% | viability, T/C [16]: 68.7% | viability, T/C [17]: 61.6% | viability, T/C [18]: 71.2% | viability, T/C [19]: 117% | viability, T/C [20]: 104% | viability, T/C [21]: 96.4% | viability, T/C [22]: 76.2% | viability, T/C [23]: 67.2% | viability, T/C [24]: 72% | viability, T/C [25]: 111% | viability, T/C [26]: 98.2% | viability, T/C [27]: 91.3% | viability, T/C [28]: 71.9% | viability, T/C [29]: 72.5% | viability, T/C [30]: 69.3%

O=C(c1cc(Cc2n[nH]c(=O)c3ccccc23)ccc1F)N1CCN(C(=O)C2CC2)CC1 + NC1CC1c1ccc(-c2cccc(O)c2)cc1
IC50 (second compound 0.1 µM): > 10000 nM | IC50 (second compound 0.316 µM): > 10000 nM | IC50 (second compound 1 µM): > 10000 nM | IC50 (second compound 3.16 µM): > 10000 nM | IC50 (second compound 10 µM): > 10000 nM | viability, T/C (second compound 0.1 µM, first compound 0.0316 µM): 85.5% | viability, T/C (second compound 0.1 µM, first compound 0.1 µM): 85.3% | viability, T/C (second compound 0.1 µM, first compound 0.316 µM): 89.4% | viability, T/C (second compound 0.1 µM, first compound 1 µM): 90.4% | viability, T/C (second compound 0.1 µM, first compound 3.16 µM): 87.2% | viability, T/C (second compound 0.1 µM, first compound 10 µM): 92.3% | viability, T/C (second compound 0.316 µM, first compound 0.0316 µM): 98% | viability, T/C (second compound 0.316 µM, first compound 0.1 µM): 90.3% | viability, T/C (second compound 0.316 µM, first compound 0.316 µM): 86.5% | viability, T/C (second compound 0.316 µM, first compound 1 µM): 86.2% | viability, T/C (second compound 0.316 µM, first compound 3.16 µM): 91.7% | viability, T/C (second compound 0.316 µM, first compound 10 µM): 83% | viability, T/C (second compound 1 µM, first compound 0.0316 µM): 90.8% | viability, T/C (second compound 1 µM, first compound 0.1 µM): 88.1% | viability, T/C (second compound 1 µM, first compound 0.316 µM): 95.8% | viability, T/C (second compound 1 µM, first compound 1 µM): 92.1% | viability, T/C (second compound 1 µM, first compound 3.16 µM): 87.2% | viability, T/C (second compound 1 µM, first compound 10 µM): 78% | viability, T/C (second compound 3.16 µM, first compound 0.0316 µM): 90.4% | viability, T/C (second compound 3.16 µM, first compound 0.1 µM): 99.3% | viability, T/C (second compound 3.16 µM, first compound 0.316 µM): 99.3% | viability, T/C (second compound 3.16 µM, first compound 1 µM): 92.3% | viability, T/C (second compound 3.16 µM, first compound 3.16 µM): 88.9% | viability, T/C (second compound 3.16 µM, first compound 10 µM): 76.7% | viability, T/C (second compound 10 µM, first compound 0.0316 µM): 84.9% | viability, T/C (second compound 10 µM, first compound 0.1 µM): 93.9% | viability, T/C (second compound 10 µM, first compound 0.316 µM): 88.9% | viability, T/C (second compound 10 µM, first compound 1 µM): 83% | viability, T/C (second compound 10 µM, first compound 3.16 µM): 83% | viability, T/C (second compound 10 µM, first compound 10 µM): 80.9%

From PubChem BioAssay AID1918958 (Molecular Pharmacology Branch, DTP, NCI, 2023)
